Measurements taken from patent publication US8673912B2, “Crystalline Forms on N-[3-fluoro-4-({6-(methyloxy)-7-[(3-morpholin-4-ylpropyl)oxy]-quinolin-4-yl}oxy)phenyl]-N′-(4-fluorophenyl)cyclopropane-1,1-dicarboxamide” (Exelixis, Inc., priority 2009, dated 2014).

Columns and labels:
Assay type in all cases: physicochemical
[1] = Karl Fisher water content determination; conditions: crystalline Form A prepared in Example 1.1.2; measured in duplicate
Procedure: The study was done using a standard procedure. Water contents were measured on a Mettler Toledo DL39 Coulometer using Hydranal AG Oven reagent and an argon purge. Samples were introduced into the vessel as solids weighed out onto a platinum TGA pan which was connected to a subaseal via tweezers to avoid water ingress. Approximately 10 mg of sample was used per titration and each analysis was performed in duplicate. The water content of crystalline Compound (I) prepared in Example 1.1.2 was measured in duplicate and gave an average value of 0.1%.

[2] = Gravimetric Vapor Sorption Study (GVS); conditions: crystalline Form A prepared in Example 1.1.2
Procedure: The GVS study was run using a standard procedure. Samples were run on a Hiden IGASorp moisture sorption analyzer running CFRSorp software. Sample sizes were typically 10 mg. A moisture adsorption desorption isotherm was performed as outlined below. All samples were loaded/unloaded at typical room humidity and temperature (40% RH, 25° C.) and analyzed afterwards by XRPD. The standard isotherm run is a cycle starting at 40% RH→90%→Dry finishing at 35% RH at 25° C. and 10% RH intervals.

[3] = Relative thermodynamic stability of crystalline forms; conditions: forms A and B are enantiotropically related
[4] = Retention of crystalline form in final tablet (XRPD); conditions: micronized, high shear wet granulation, compression, optional aqueous film coat
Procedure: The tablets in this example were prepared with an optional aqueous film coat. Preparation of the intra-granular component involved a high shear wet granulation to make granules to be used for further processing. All components used are conventional for the wet granulation process except for the sodium lauryl sulfate which was added as a bioenhancement agent to enhance the bioavailability of the drug substance. The crystalline Compound (I), form B, was used in a micronized form for bioenhancement, which means that the density of the drug substance is low making it difficult to handle and process. High shear wet granulation is used to produce dense material that is easier to process and make into tablets. The preparation of the extra-granular component was a compression step to make the tablets out of the granules and the added excipients. The excipients used are conventional to allow for the formation of the tablet. The crystalline form of Compound 1, Form B, was retained in the final tablet as confirmed by XRPD.

Compound: COc1cc2c(Oc3ccc(NC(=O)C4(C(=O)Nc5ccc(F)cc5)CC4)cc3F)ccnc2cc1OCCCN1CCOCC1 [Compound (I), N-[3-fluoro-4-({6-(methyloxy)-7-[(3-morpholin-4-ylpropyl)oxy]quinolin-4-yl}oxy)phenyl]-N′-(4-fluorophenyl)cyclopropane-1,1-dicarboxamide]
- water content (Karl Fisher), average value [1]: 0.1%
- weight gain (GVS) ([2]; 25° C. and 90% humidity): 0.5%
- reanalysis of the sample by XRPD after GVS ([2]; after isotherm cycle 40% RH to 90% to dry to 35% RH at 25° C.): no change in form

Compound: COc1cc2c(Oc3ccc(NC(=O)C4(C(=O)Nc5ccc(F)cc5)CC4)cc3F)ccnc2cc1OCCCN1CCOCC1 [Form A, N-[3-fluoro-4-({6-(methyloxy)-7-[(3-morpholin-4-ylpropyl)oxy]quinolin-4-yl}oxy)phenyl]-N′-(4-fluorophenyl)cyclopropane-1,1-dicarboxamide]
- temperatures at which the form is believed to be the most thermodynamically stable form [3]: less than 75 °C

Compound: COc1cc2c(Oc3ccc(NC(=O)C4(C(=O)Nc5ccc(F)cc5)CC4)cc3F)ccnc2cc1OCCCN1CCOCC1 [Form B, N-[3-fluoro-4-({6-(methyloxy)-7-[(3-morpholin-4-ylpropyl)oxy]quinolin-4-yl}oxy)phenyl]-N′-(4-fluorophenyl)cyclopropane-1,1-dicarboxamide]
- temperatures at which the form is believed to be the most thermodynamically stable form [3]: greater than 75 °C
- crystalline form in the final tablet as confirmed by XRPD [4]: retained
